pKi: −log10 of the molar value.
Columns and labels:
[1] = molecular target: Kappa-type opioid receptor (Cavia porcellus, UniProt P41144); assay: Activity was evaluated by inhibition of the binding of 1 nM [3H]U-69593 at Opioid receptor kappa 1 binding site
Mu-type opioid receptor = Mu-type opioid receptor (Bos taurus, UniProt P79350); assay: Activity was evaluated by inhibition of the binding of 0.8 nM [3H]- DAMGO at Opioid receptor mu 1 binding site
Mus musculus [2] = species: Mus musculus; assay: Antinociceptive action was evaluated by mouse tail flick assay at a dose of 100 nmol in the presence of 3 nmol morphine on 5 mice; format: functional
Mus musculus [3] = species: Mus musculus; assay: Antinociceptive action was evaluated by mouse tail flick assay at a dose of 300 nmol on 5 mice; format: functional
Mus musculus [4] = species: Mus musculus; assay: Antinociceptive action was evaluated by mouse tail flick assay at a dose of 100 nmol in the presence of morphine on 9 mice; format: functional
Mus musculus [5] = assay: Percent activity against delta selective antinociception when given icv injection at a dose of 10 nmol 20 min before mouse tail flick test; format: functional
Mus musculus [6] = assay: Percent activity against delta selective antinociception when given icv injection at a dose of 10 nmol 20 min before the mouse tail flick test along with 4 nmol ICI 174864; format: functional
Mus musculus [7] = species: Mus musculus; assay: Antinociceptive action was evaluated by mouse tail flick assay at a dose of 100 nmol on 10 mice; format: functional
Mus musculus [8] = species: Mus musculus; assay: Antinociceptive action was evaluated by mouse tail flick assay at a dose of 3 nmol on 9 mice; format: functional
Mus musculus [9] = species: Mus musculus; assay: Antinociceptive action was evaluated by mouse tail flick assay at a dose of 10 nmol on 5 mice; format: functional

Kappa-type opioid receptor, sequence (P41144 whole entry): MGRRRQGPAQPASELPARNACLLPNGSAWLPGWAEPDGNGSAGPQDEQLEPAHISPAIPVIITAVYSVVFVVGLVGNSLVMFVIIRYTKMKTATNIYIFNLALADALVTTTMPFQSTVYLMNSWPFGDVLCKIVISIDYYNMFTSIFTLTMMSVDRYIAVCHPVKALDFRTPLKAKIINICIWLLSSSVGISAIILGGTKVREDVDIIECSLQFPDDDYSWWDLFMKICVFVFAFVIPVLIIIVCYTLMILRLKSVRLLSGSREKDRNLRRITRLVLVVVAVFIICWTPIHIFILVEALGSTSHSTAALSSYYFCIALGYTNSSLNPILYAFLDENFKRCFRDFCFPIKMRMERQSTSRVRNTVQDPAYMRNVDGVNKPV
Mu-type opioid receptor, sequence (P79350 whole entry): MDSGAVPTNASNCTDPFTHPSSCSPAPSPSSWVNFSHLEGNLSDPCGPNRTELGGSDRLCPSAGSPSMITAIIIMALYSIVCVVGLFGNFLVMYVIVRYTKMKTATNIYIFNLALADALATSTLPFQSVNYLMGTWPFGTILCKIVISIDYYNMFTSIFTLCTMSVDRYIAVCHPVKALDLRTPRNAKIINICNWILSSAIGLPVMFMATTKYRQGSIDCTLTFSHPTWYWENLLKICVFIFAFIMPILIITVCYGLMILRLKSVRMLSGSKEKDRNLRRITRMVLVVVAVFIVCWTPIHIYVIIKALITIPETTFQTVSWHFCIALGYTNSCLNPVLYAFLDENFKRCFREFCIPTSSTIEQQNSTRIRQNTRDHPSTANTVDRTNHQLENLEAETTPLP

SMILES | pKi [1] | pKi (Mu-type opioid receptor) | other results
COCC12Cc3ccc(O)cc3[C@](C)(CCCN1C)C2 (single isomer, unassigned) | 6.10 |  | 
CN1CNC2CCC3(C)CC2(Cc2ccc(O)cc23)C1 (stereo unspecified) | 7.76 | 7.56 | 
COC[C@]12Cc3ccc(O)cc3[C@](C)(CCc3nnnn31)C2 | < 5.00 |  | 
CN(C)C1CCC2(C)CC1(C)Cc1ccc(O)cc12 (single isomer, unassigned; (+)) | 5.22 |  | 
COCC12Cc3ccc(O)cc3C(C)(CCC1N)C2 (stereo in doubt; (+)3a) | 7.09 | 8.70 | Antinociception (Mus musculus [2]): 58%; Antinociception (Mus musculus [3]): 13%
CNCC12Cc3ccc(O)cc3C(C)(CCC1N)C2 (stereo unspecified) | 7.29 | 7.04 | 
CN(C)C1CCC2(C)CC1(CO)Cc1ccc(O)cc12 (single isomer, unassigned; (+)) | 5.54 | 6.08 | 
CN1CC23Cc4ccc(O)cc4C(C)(CCC12)C3 (single isomer, unassigned; (+)) | 6.67 | 6.75 | 
COCC12Cc3ccc(O)cc3C(C)(CCC1N(C)C)C2 (single isomer, unassigned; (-)) | 7.22 | 7.71 | 
CC12CCC(N)C(CO)(Cc3ccc(O)cc31)C2 (single isomer, unassigned; (-)) | 6.96 | 7.39 | 
CNC1CCC2(C)CC1(CO)Cc1ccc(O)cc12 (single isomer, unassigned; (-)) | 6.19 | 6.42 | 
CN(C)C1CCC2(C)CC1(C)Cc1ccc(O)cc12 (single isomer, unassigned; (-)) | 6.39 | 6.53 | 
COCC12Cc3ccc(O)cc3C(C)(CCC1N)C2 (stereo in doubt; (dl)-22) | 8.18 | 8.70 | Antinociception (Mus musculus [4]): 74%
CN(C)C1CCC2(C)CC1(CO)Cc1ccc(O)cc12 (stereo in doubt; (-)-3c) | 5.42 | 6.06 | 
CNC1CCC2(C)CC1(CO)Cc1ccc(O)cc12 (single isomer, unassigned; (+)) | 6.36 | 7.38 | 
COCC12Cc3ccc(O)cc3C(C)(CCC1N(C)C)C2 (single isomer, unassigned; (+)) | 6.91 | 7.60 | 
CC1(C)SSC(C)(C)[C@@H](NC(=O)[C@@H](N)Cc2ccc(O)cc2)C(=O)NCC(=O)N[C@@H](Cc2ccccc2)C(=O)N[C@H]1C(=O)O |  |  | Activity (Mus musculus [5]): 55%; Activity (Mus musculus [6]): 5%
CC12CCC(N)C(CO)(Cc3ccc(O)cc31)C2 (stereo in doubt; (+)-3b) | < 5.00 | 7.39 | 
COCC12Cc3ccc(O)cc3C(C)(CCC1N)C2 (stereo in doubt; (-)-3a) | 7.27 | 8.64 | Antinociception (Mus musculus [7]): 37%
CN1CC[C@]23c4c5ccc(O)c4O[C@H]2[C@@H](O)C=C[C@H]3[C@H]1C5 [MORPHINE] |  |  | Antinociception (Mus musculus [8]): 65%; Antinociception (Mus musculus [9]): 100%
